Results on 2 compounds are retold here after PubChem BioAssay AID720688 (NMMLSC, 2013).

This assay concerns the target Cell division control protein 42 homolog (Homo sapiens) (UniProt P60953). Description: inhibition of fluorescent GTP binding to wildtype Cdc42 – biochemical, protein source comparison, flow cytometry beads, Bodipy-FL-GTP, mechanism study for Ras-family GTPase inhibitor project, late-stage follow-up (AID 720688). The note with it: GST-Cdc42 beads.

pEC50: −log10 of the molar value. Calls of active or inactive are those of the source.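 The calls were made as follows: active = half-effect concentration at most 10 µM, response change at least 30% across doses, and a curve fit passing quality checks; inactive = the rest.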

Sequence of Cell division control protein 42 homolog (Homo sapiens) (P60953 whole entry, looked up): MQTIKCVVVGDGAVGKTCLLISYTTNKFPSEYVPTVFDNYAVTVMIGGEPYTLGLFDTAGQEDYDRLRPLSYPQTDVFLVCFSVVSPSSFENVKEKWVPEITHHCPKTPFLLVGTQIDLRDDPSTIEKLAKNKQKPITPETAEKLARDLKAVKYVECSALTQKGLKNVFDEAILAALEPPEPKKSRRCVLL

`CC1(C)Cc2c(sc(NC(=S)NC(=O)c3cccc(N=[N+]=[N-])c3)c2C(=O)O)CO1` gave a pEC50 (protein source 2) of 4.73.

For `CC1(C)Cc2c(sc(NC(=S)NC(=O)c3ccc(N=[N+]=[N-])cc3)c2C(=O)O)CO1`, under “protein source 2, at 100 µM (top of the series)”, the “% response remaining, lower = inhibition” value is “inactive”.
